For experiment [1], the system named is PI3K pathway (phosphorylation of AKT). The experiment in a line: Western blot, phospho-AKT in treated cells. Type of experiment: cell-based. The settings on record: LY2, JIMT1, MDA‐MB‐231 cells, 24 h; seen at 10 µM. As for the experimental part:
FIGURE 4 Cell‐based evaluation of compounds 5a– 5f. Dose‐dependent effects of compound treatment (5a‐5f) on breast cancer cell viability across JIMT1 (A), MDA‐MB‐231 (B), and LY2 (C). Cell‐based evaluation of HDAC and PI3K inhibition by compounds 5b and 5f by Western blot. JIMT1 cells were treated for 24 h with compounds 5b (D) and 5f (E) at the concentrations of 1, 3, and 10 µM or with vehicle control (0.1% DMSO). Protein expression levels were analyzed by western blot using antibodies against acetylated α‐tubulin, acetyl H3 (H3K9Ac and H3K14Ac), phospho‐AKT (p‐AKT), and total AKT. GAPDH served as a loading control.
To investigate if 5b and 5f were acting as multitarget inhibitors, we evaluated the modulation of HDAC6 and PI3K signaling pathways by western blot analysis (Figure 4D,E). […]
Total protein samples were extracted from treated cells using a lysis buffer containing 0.1% IGEPAL CA‐630 (I8896, Merck), 0.5% deoxycholic acid (D2510, Merck), and 0.1% SDS (L3771, Merck), freshly supplemented with protease and phosphatase inhibitor cocktail (78442, Thermo Fisher Scientific). Protein concentrations were quantified using the Pierce BCA Protein Assay Kit (23227, Thermo Fisher Scientific) according to the manufacturer's instructions. […] Chemiluminescence signals were detected using the Amersham Imager 680 Imaging System. […]
On the technique in general: A western blot detects proteins with antibodies after separation by electrophoresis.

The next experiment concerns LY2 breast cancer cells. Description: MTS cell viability assay, LY2. Type of experiment: cell-based. As to conditions: 72 h treatment. The procedure:
The cell viability effects of compounds 5a–5f were assessed in LY2, JIMT1, and MDA‐MB‐231 breast cancer cell lines using the 3‐(4,5‐dimethylthiazol‐2‐yl)‐5‐(3‐carboxymethoxyphenyl)‐2‐(4‐sulfophenyl)‐2H‐tetrazolium (MTS) assay. The MTS assay measures metabolic viability and serves as a first‐pass screen.
JIMT‐1 (DSMZ ACC 589) and MDA‐MB‐231 (ATCC HTB‐26) breast cancer cell lines were maintained in Dulbecco's Modified Eagle Medium (DMEM) High Glucose with L‐glutamine (D5796, Sigma) supplemented with 10% fetal calf serum. MCF7‐derivative LY2 breast cancer cells were previously described (REF: PMID: 33420368). LY2 cells were cultured in phenol red‐free MEM (PRF‐MEM; 51 200‐046, Gibco) supplemented with 10% charcoal dextran‐stripped fetal calf serum (CDS‐FCS; F6765, Merck), 2 mmol/L L‐glutamine (G7513, Merck), and 10^−8 mol/L 4‐hydroxytamoxifen (4‐OHT; H7904, Merck). All cell lines were maintained at 37°C in a humidified incubator with 5% CO2 and regularly authenticated and tested for mycoplasma.
Cell viability was evaluated in response to increasing concentrations of 5a‐5f (0.3, 1, 3, 10, and 30 μM) or vehicle control (0.1% DMSO). LY2, JIMT1, and MDA‐MB‐231 cells were seeded at a density of 2,500 cells per well in 96‐well plates with a total volume of 100 μL per well. Prior to treatment, cells were serum‐deprived for 24 h. Following serum depletion, cells were treated in complete growth medium for 72 h. Cell viability was assessed using the MTS assay (G1111, Promega) according to the manufacturer's instructions. Absorbance was measured at 495 nm using a BioTek Synergy HTX Multi‐Mode Microplate Reader (Agilent). Results were normalized to the vehicle control (DMSO), and the half‐maximal inhibitory concentration (IC50) of the inhibitors was determined by nonlinear regression (curve fit) using a four‐parameter variable slope model.
For orientation: Tetrazolium dyes change colour on reduction, which living cells bring about.

A further experiment concerns the target HDAC10 (Homo sapiens, UniProt Q969S8). The experiment in a line: Selectivity profile, single dose 0.5 µM, HDAC10. Type of experiment: biochemical. As to conditions: remaining enzyme activity; single‐dose duplicate mode at 0.5 μM; read-out: Enzyme % activity (relative to DMSO controls) at 0.5 µM, HDAC10. As for the experimental part: The inhibitory profiles of 5b and 5f were evaluated against selected HDAC isoforms (HDAC1, HDAC3, HDAC4, HDAC8, and HDAC10) and PI3K isoforms (PI3Kδ, PI3Kγ, and PI3Kβ) at a fixed concentration of 0.5 µM (Table 3). […] While we explored the phenyl ring in the linker region to achieve selectivity for the HDAC6 isoform, we still observed HDAC class I inhibition. […] It is important to highlight that PI3Kδ is mainly expressed in hematopoietic system and plays roles in leukocyte signaling, T‐cell activation, and immune cell trafficking. FDA‐approved drug idelalisib is a selective PI3Kδ inhibitor in B‐cell malignancies; however, this drug is also related to disruption of the immune system, which can lead to immune manifestations, such as infections. In addition, while isoform‐selective PI3K inhibitors are well tolerated, pan‐inhibition of PI3K is less expected that compensatory mechanisms by the action of other PI3Ks can take place. Thus, a more balanced profile of PI3K inhibition can lead to an overall lack of toxicity of PI3K inhibitors.

The values that follow come from paper PMC13110364, “Design, Synthesis, and Biological Evaluation of Novel Triazine‐Based Dual Histone Deacetylase/phosphatidylinositol 3‐kinase Inhibitors for Breast Cancer Therapy” (Chemmedchem, 2026).

Chain of HDAC10 (Q969S8 whole entry, canonical isoform): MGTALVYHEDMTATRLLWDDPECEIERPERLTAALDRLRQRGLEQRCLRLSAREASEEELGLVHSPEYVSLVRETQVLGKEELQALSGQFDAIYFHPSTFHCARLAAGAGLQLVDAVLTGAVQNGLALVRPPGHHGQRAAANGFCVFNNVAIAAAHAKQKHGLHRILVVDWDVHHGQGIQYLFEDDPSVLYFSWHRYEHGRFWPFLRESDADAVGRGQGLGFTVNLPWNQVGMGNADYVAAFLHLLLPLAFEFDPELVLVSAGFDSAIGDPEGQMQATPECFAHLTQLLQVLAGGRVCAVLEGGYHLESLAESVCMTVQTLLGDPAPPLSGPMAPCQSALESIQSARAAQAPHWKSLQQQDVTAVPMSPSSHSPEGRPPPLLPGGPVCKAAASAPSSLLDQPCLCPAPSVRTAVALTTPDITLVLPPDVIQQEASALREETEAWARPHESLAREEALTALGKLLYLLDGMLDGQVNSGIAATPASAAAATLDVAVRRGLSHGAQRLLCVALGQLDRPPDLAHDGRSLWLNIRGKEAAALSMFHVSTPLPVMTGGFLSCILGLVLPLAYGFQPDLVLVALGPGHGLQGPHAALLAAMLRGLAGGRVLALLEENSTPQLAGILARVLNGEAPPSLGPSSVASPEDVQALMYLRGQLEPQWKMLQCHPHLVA

Broadly, the IC50 is the concentration that gives 50% inhibition. `COc1ccc(-c2nc(NCc3ccc(C(=O)NO)cc3)nc(N3CCOCC3)n2)cn1` [Compound 5f, N‐Hydroxy‐4‐(((4‐(6‐Methoxypyridin‐3‐yl)‐6‐Morpholino‐1,3,5‐Triazin‐2‐yl)Amino)Methyl)Benzamide]: the “Phosphorylation of AKT, western blot” value in experiment [1] was “decreased phosphorylation of AKT”. Further, the IC50 in the experiment with LY2 breast cancer cells came out at 8.81 ± 0.59 µM. For the same compound, on HDAC10, the remaining activity at 0.5 µM is 28.1%.

Take `O=C(NO)c1ccc(CNc2nc(-c3cccc(O)c3)nc(N3CCOCC3)n2)cc1` [Compound 5b, N‐Hydroxy‐4‐(((4‐(3‐Hydroxyphenyl)‐6‐Morpholino‐1,3,5‐Triazin‐2‐yl)Amino)Methyl)Benzamide]: the “Phosphorylation of AKT, western blot” value in experiment [1] was “decreased phosphorylation of AKT”. Besides, the IC50 in the experiment with LY2 breast cancer cells stood at 4.68 ± 1.34 µM. Also, the remaining activity at 0.5 µM on HDAC10 was 15.9%.
